Reference: patent publication US20130196406A1, “NOVEL PROTEIN-POLYMER NANOCAPSULES” (University of Connecticut, priority 2012, published 2013)

Experiments:
[1] = molecular target: T1, Hb-PAA-1k-6 nanocapsule (bovine met-hemoglobin conjugated to polyacrylic acid, synthesized at pH 6) (Bos taurus, UniProt P01966+P02070); assay: Peroxidase-like activity, Michaelis-Menten kinetics (guaiacol oxidation by H2O2, 470 nm), Hb-PAA-1k-6; format: biochemical; conditions: 1 μM Hb, 2.5 mM guaiacol, 1 mM H2O2
T1 construct: peroxidase-like activity with guaiacol/H2O2
T1 sequence (P01966 whole entry): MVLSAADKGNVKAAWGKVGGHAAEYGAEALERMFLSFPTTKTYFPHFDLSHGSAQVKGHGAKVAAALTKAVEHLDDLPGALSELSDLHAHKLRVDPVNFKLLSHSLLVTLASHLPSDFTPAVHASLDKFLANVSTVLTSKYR
T1 sequence (P02070 whole entry): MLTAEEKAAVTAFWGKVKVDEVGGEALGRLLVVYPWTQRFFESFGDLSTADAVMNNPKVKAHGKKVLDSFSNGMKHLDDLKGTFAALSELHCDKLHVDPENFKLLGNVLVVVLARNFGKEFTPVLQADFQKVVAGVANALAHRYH
Description: (§1) FIG. 5 provides Lineweaver-Burk plots for the peroxidase-like activity of Hb-PAA conjugates. A) Peroxidase-like activity for the 1 μM of Hb-PAA synthesized at pH 6.0. B) Peroxidase-like activity for 1 μM Hb-PAA synthesized at pH 7.0. All experiments were done in the presence of 1 μM Hb, 2.5 mM guaiacol and 1 mM H2O2.
(§2) Polyacrylic acid (PAA) (8000 Da) was purchased from sigma chemical Co (St. Louis, Mo.). The PAA stock solution was made by mixing 1.32 gm of 45% (w/w) PAA in 3 ml of 20 mM Na2HPO4 buffer, pH 7.2, and was further used for synthesis. Met-hemoglobin (Hb, bovine) was purchased from Sigma. Protein solutions were prepared in the respective buffers used for synthesis and the concentrations determined from the Soret absorbance of Hb using extinction co-efficient 303,956 M^−1 cm^−1 at 407 nm. […]
(§3) Hb activity was monitored by the addition of guaiacol (substrate) and hydrogen peroxide (oxidant), and formation of the colored product has been monitored by its absorption at 470 nm as a function of time (FIG. 4). […]
(§4) Hb activity was followed by literature method, with minor modifications. Product absorbance at 470 nm was monitored as a function time of after the addition of H2O2 (1 mM) to Hb (5 μM) and o-methoxyphenol (2.5 mM). Initial rates and Michaelis-Menten parameters were calculated from the kinetic data by following standard protocols. […]

[2] = molecular target: T2, Hb-PAA-1k-7 nanocapsule (bovine met-hemoglobin conjugated to polyacrylic acid, synthesized at pH 7) (Bos taurus, UniProt P01966+P02070); assay: Peroxidase-like activity, Michaelis-Menten kinetics (guaiacol oxidation by H2O2, 470 nm), Hb-PAA-1k-7; format: biochemical; conditions: 1 μM Hb, 2.5 mM guaiacol, 1 mM H2O2
T2 construct: peroxidase-like activity with guaiacol/H2O2
T2 sequence (P01966 whole entry): as the sequence (P01966 whole entry) above
T2 sequence (P02070 whole entry): as the sequence (P02070 whole entry) above
Description: as §1, §2, §3, §4

Vmax [1]: 0.0028 mM/s
Vmax [2]: 0.0025 mM/s
Structure (SMILES): COc1ccccc1O [guaiacol, o-methoxyphenol]
